# Test results from patent publication US7122214B2, “Drynaria extractions for treating osteoporosis and their extraction process” (priority 2000, dated 2006).
# Tests used:
# [1] = test system: Primary Osteoporosis; assay: Clinical test of RDE on primary osteoporosis: bone density by double-energy X-ray bone density meter; type: in vivo, human; conditions: for Bone density of collum femoris / Bone density of trigonal area of femur / Bone density of trochanteric of femur / Bone density of lumber (L2–L4): RDE 180 mg po tid, α-D3 0.5 μg po bid; for Bone density of lumber (L2–L4): n=17 per group
# Procedure: (§1) The drugs with the following dosages and contents are used unless additional explanations.
# (§2) Extracts in this present invention: capsules of preparation example 1, each capsule contains 0.18 g of effective component. Positive control medicine: α-D3, (synthesized by TEVA PHARMACEUTICALS, Israel, prepared by Sino-US Kunming BARKER NORTON PHARMACEUTICAL CO., LTD), each capsule contains 0.5 μg of effective component)
# (§3) Diagnostic criteria: Comprehensive Diagnostic Grades for Primary Osteoporosis, according to the diagnostic criteria established by Specialized Committee of Osteoporosis of Chinese Association of Geriatrics. (cf. Gu-zhi-shu-song-zheng [M], p169–171, LIU Zhonghou eds. Chemical Industrial Press, Guangzhou, 1992)
# (§4) According to the diagnostic criteria mentioned above, 70 cases of osteoporosis are randomly divided into treatment group with RDE and control group with α-D3. RDE is administrated 180 mg, per os, tid, for 6 months-2 period of treatment. And α-D3 is administrated 0.5 μg, per os, bid, for 6 months too.
# (§5) Bone density of lumbar (L2–L4) and top-femur (collum femoris, trigonal area of femur, trochanteric of femur) is checked respectively by Double-Energy X-ray Bone Density Meter (LUNAR DPX-L DEXA bone densitometer,US). The unit is g/cm^2. And an Ultrasonic Bone Densitometer (model 2000-SYS-220, METRA Co., Israel) is employed to check the bone density of mid-portion of tibia.
# [2] = test system: Primary Osteoporosis; assay: Clinical test of RDE on primary osteoporosis: ultrasonic bone density of mid-portion of tibia; type: in vivo, human; conditions: for ultrasonic bone density, Age matched (difference value) / ultrasonic bone density, Young adult (difference value): RDE 180 mg po tid (n=16), α-D3 0.5 μg po bid (n=15)
# Procedure: as §1, §2, §3, §4, §5
# [3] = test system: Tretinoin-induced osteoporosis in rats; assay: Bone density in Tretinoin-induced osteoporosis model in rats; type: in vivo, Wistar rats
# Procedure: (§6) Observe the effect of RDE in this invention on both Tretinoin-induced and Ovariectomized (OVX) osteoporosis model in rats.
# (§7) RDE was produced according to Example 1 (Per gram extract is equivalent to 66.67 g crude drugs). RDE was dissolved in distilled water to a concentration of 0.47 mg/ml before administration. And administration was conducted via gastric tube. Tretinoin is manufactured by Chongqing Huabang Pharmaceuticals, Ltd. and was suspended to the concentration of 1.5% with distilled water. Control drug α-D3 was manufactured by TEVA PHARMACEUTICALS, Israel, which is solved in distilled water to the concentration of 0.03 μg/ml before using and administrated orally via gastric tube.
# (§8) Tretinoin-induced osteoporosis rats: sixty female W istar rats, 16-week-old, mean weight 234.85±15.32 g. Ovariectomized rats: sixty female Wistar rats, 12-week-old, mean weight 183.46±12.45 g. All the animals are obtained from the Experimental Animal Center of Chinese Military Medical Academy.
# (§9) Bone Biomechanics Rheometer was manufactured by Stevens Company, Great Britain (model QTS-25). X ray Bone-density-meter was manufactured by Norland Company, USA (model XR-26). The others are all obtained from market.
# (§10) 4. Dose Selections and Groups: • (1) Tretinoin-induced group: Sixty rats are randomly allocated to six groups (10 rats per group). Blank group: control animals received PSS/d (physiological saline solution) alone. […]
# (§11) The dose administered to each animal is calculated from the individual body weight recorded at the end of each week. […]
# (§12) 7. […] Bone biomechanics measurements: three point bending tests of left thighbone of each animal are performed; load-deformation curve is recorded to measure the biomechanics index. […] Bone structural mechanics parameters: breaking load, elastic load, maximum radius, elastic radius, maximum energy absorption; bone material mechanics parameters: firstly calculated the Femoral Section Inertial Moment, then computed the maximum strain, elastic strain, maximum stress, elastic stress and elastic modulus according to the formulae. […]
# [4] = test system: Ovariectomized (OVX) rats; assay: Bone density in Ovariectomized (OVX) osteoporosis model in rats; type: in vivo, Wistar rats
# Procedure: as §6, §7, §8, §9, §10, §11, §12
# [5] = test system: Tretinoin-induced osteoporosis in rats; assay: Bone biomechanics (three point bending of left thighbone) in Tretinoin-induced osteoporosis rats; type: in vivo, Wistar rats
# Procedure: as §6, §7, §8, §9
# 4. Dose Selections and Groups: • (1) Tretinoin-induced group: Sixty rats are randomly allocated to six groups (10 rats per group). Blank group: control animals received PSS/d (physiological saline solution) alone. Model group: Tretinoin is given orally 70 mg/kg/d; α-D3 group: both tretinoin and α-D3 are given orally 70 mg/kg/d and 0.002 μg/kg/d respectively; RDE low-dose group: both tretinoin and RDE are given orally 70 mg/kg/d and 54 mg/kg/d respectively; RDE medium-dose group: tretinoin 70 mg/kg/d and RDE 108 mg/kg/d; RDE high-dose group: tretinoin 70 mg/kg/d and RDE 216 mg/kg/d. • (2) Ovariectomized (OVX) rats group: Sixty rats are randomly allocated to six groups (10 rats per group). Blank group is the normal rats. All the other groups are removed amphi-ovaries. Model group received PSS only; α-D3 group: α-D3 is administrated orally 0.002 μg/kg/d; And RDE is administrated orally in the dose of 54, 108, 216 mg/kg/day to OVX rats respectively, corresponding to RDE groups of low-dose, medium-dose and high-dose.
# The dose administered to each animal is calculated from the individual body weight recorded at the end of each week.
# Tretinoin-induced osteoporosis groups: Blank group received PSS during the course of experiment. The other groups commenced treatment on the same day, designated study Day 1, and once-daily tretinoin orally given for 14 days, after which they stopped administrating tretinoin. Both blank and model groups are given PSS in Day 15, and α-D3 group is given α-D3, RDE groups are given the corresponding dose of RDE orally for 14 days. The final dose is given in the Day 28 before sacrificed. Investigation of Bone Density and Bone-biomechanics are performed in the Day 29.
# 7. Measurements • 7.1. Bone density measurements are performed on No.2–4 lumbar spines and right thighbone of each animal. • 7.2. Bone biomechanics measurements: three point bending tests of left thighbone of each animal are performed; load-deformation curve is recorded to measure the biomechanics index. Experimental parameters: span 20 mm, loading velocity 10 mm/min. Bone structural mechanics parameters: breaking load, elastic load, maximum radius, elastic radius, maximum energy absorption; bone material mechanics parameters: firstly calculated the Femoral Section Inertial Moment, then computed the maximum strain, elastic strain, maximum stress, elastic stress and elastic modulus according to the formulae. [Results]
# [6] = α-D3 0.002 μg/kg/d oral 14 days after tretinoin 70 mg/kg/d 14 days
# [7] = OVX rats, α-D3 0.002 μg/kg/d oral 12 weeks
structure (smiles),measurement,setting,value
C=C1/C(=C\C=C2/CCC[C@]3(C)[C@@H]([C@H](C)CCCC(C)C)CC[C@@H]23)C[C@@H](O)C[C@@H]1O [α-D3],Bone density of collum femoris,[1]; Before-treatment (baseline),0.748 ± 0.095 g/cm^2
same,Bone density of trigonal area of femur,[1]; Before-treatment (baseline),0.582 ± 0.125 g/cm^2
same,Bone density of trochanteric of femur,[1]; Before-treatment (baseline),0.606 ± 0.109 g/cm^2
same,Bone density of lumber (L2–L4),[1]; Before-treatment (baseline),0.958 ± 0.180 g/cm^2
same,Change of bone density of collum femoris after vs before treatment,"[1]; after 3 and 6 months, within group",no significant difference
same,Bone density of collum femoris,[1]; after 3 months treatment,0.744 ± 0.100 g/cm^2
same,Bone density of trigonal area of femur,[1]; after 3 months treatment,0.591 ± 0.124 g/cm^2
same,Bone density of trochanteric of femur,[1]; after 3 months treatment,0.616 ± 0.099 g/cm^2
same,Bone density of lumber (L2–L4),[1]; after 3 months treatment,0.954 ± 0.179 g/cm^2
same,Change of bone density of lumber (L2–L4) after vs before treatment,"[1]; after 3 or 6 months treatment, within group",no improvement
same,Bone density of collum femoris,[1]; after 6 months treatment,0.744 ± 0.093 g/cm^2
same,Bone density of trigonal area of femur,[1]; after 6 months treatment,0.581 ± 0.134 g/cm^2
same,Bone density of trochanteric of femur,[1]; after 6 months treatment,0.616 ± 0.094 g/cm^2
same,Bone density of lumber (L2–L4),[1]; after 6 months treatment,0.958 ± 0.145 g/cm^2
same,"ultrasonic bone density, Age matched (difference value)",[2]; Before-treatment (baseline),−1.433 ± 0.788 g/cm^2
same,"ultrasonic bone density, Young adult (difference value)",[2]; Before-treatment (baseline),−1.993 ± 0.872 g/cm^2
same,"Speed sound, change self-compared within group","[2]; RDE P<0.01, α-D3 P<0.05",increase significantly
same,"ultrasonic bone density, Age matched (difference value)",[2]; after 3 months treatment,−1.386 ± 0.908 g/cm^2
same,"ultrasonic bone density, Young adult (difference value)",[2]; after 3 months treatment,−1.953 ± 1.181 g/cm^2
same,"ultrasonic bone density, Age matched (difference value)",[2]; after 6 months treatment,−0.987 ± 1.068 g/cm^2
same,"ultrasonic bone density, Young adult (difference value)",[2]; after 6 months treatment,−0.593 ± 1.209 g/cm^2
same,femoral bone density compared with model group,[3]; Tretinoin-induced osteoporosis rats (Table 9),increased obviously
same,Bone density Lumber spine,[3]; [6],0.135 ± 0.005 g/cm^2
same,Bone density thighbone,[3]; [6],0.137 ± 0.004 g/cm^2
same,femoral bone density compared with model group,[4]; OVX rats (Table 10),increased obviously
same,Bone density Lumber spine,[4]; [7],0.13 ± 0.009 g/cm^2
same,Bone density thighbone,[4]; [7],0.13 ± 0.009 g/cm^2
same,all the bone structural mechanics indicators compared with model group,[5]; Tretinoin-induced osteoporosis rats (Table 11),increased significantly
same,Elastic load,[5]; [6],100.40 ± 7.00 N
same,Elastic strain (material),[5]; [6],0.03 ± 0.01
same,Elastic strain (structural),[5]; [6],1.01 ± 0.14 mm
same,Elastic stress,[5]; [6],177.6 ± 51.3 N/mm^2
same,Maximum energy observation,[5]; [6],635.73 ± 114.46 N-mm
same,Maximum load,[5]; [6],103.20 ± 3.40 N
same,Maximum strain (material),[5]; [6],0.03 ± 0.009
same,Maximum strain (structural),[5]; [6],0.98 ± 0.14 mm
same,Maximum stress,[5]; [6],167.2 ± 44.5 N/mm^2
same,Rigidity coefficient,[5]; [6],30561 ± 9194 N/mm^2
